In ChEMBL document CHEMBL5154794, “Design, synthesis and biological evaluation of protease inhibitors containing morpholine cores with remarkable potency against both HIV-1 subtypes B and C” (Eur J Med Chem, 2022):

Key:
[1] = system: Human immunodeficiency virus 1; experiment: Antiviral activity against HIV1 subtype C isolate Indie; format: functional, organism-based; settings: Human immunodeficiency virus 1, subtype C isolate Indie
[2] = system: Human immunodeficiency virus 1; experiment: Antiviral activity against HIV1 subtype C isolate ZM246; format: functional, organism-based; settings: Human immunodeficiency virus 1, subtype C isolate ZM246
[3] = system: Human immunodeficiency virus 1; experiment: Antiviral activity against wild type HIV1 NL4-3; format: functional, organism-based; settings: Human immunodeficiency virus 1, NL4-3
[4] = system: Human immunodeficiency virus 1; experiment: Antiviral activity against DRV resistant HIV1; format: functional, organism-based
[5] = system: Human immunodeficiency virus 1; experiment: Antiviral activity against HIV1 NL4-3 Env-deficient VSV-G pseudotyped virus infected in human SUP-T1 cells assessed as inhibition of late stage viral production at 100 nM measured after 48 hrs by luciferase assay relative to control; format: functional; settings: Human immunodeficiency virus 1, NL4-3, SUP-T1
[6] = Cytotoxicity against human HEK-293T cells after 24 hrs by CCK-8 assay; format: toxicity, cell-based
HIV-1 protease = experiment: Selectivity index, ratio IC50 for cytotoxicity against human HEK-293T cells over IC50 for inhibition of HIV-1 protease; format: toxicity, cell-based; settings: read-out: Ratio CC50/IC50
[7] = target: Human immunodeficiency virus type 1 protease (Human immunodeficiency virus 1, UniProt Q72874); experiment: Inhibition of HIV-1 protease using Arg-Glu (EDANS)-Ser-Gln-Asn-Tyr-Pro-lle-Val-Gln-Lys (DABCYL)-Arg as substrate preincubated for 20 to 30 mins followed by substrate addition and measured by FRET assay
[8] = Selectivity index, ratio EC50 for Antiviral activity against DRV resistant HIV1 over EC50 for wild type HIV1 NL4-3
[9] = system: Human immunodeficiency virus 1; experiment: Antiviral activity against HIV1 NL4-3 Env-deficient VSV-G pseudotyped virus infected in human SUP-T1 cells assessed as inhibition of late stage viral production at 10 uM measured after 48 hrs by luciferase assay relative to control; format: functional; settings: Human immunodeficiency virus 1, NL4-3, SUP-T1

CC(C)CN(C[C@@H](O)[C@H](Cc1ccccc1)NC(=O)O[C@H]1CO[C@H]2OCC[C@H]21)S(=O)(=O)c1ccc(N)cc1
EC50 [1]: 1.26 nM | EC50 [2]: 2.01 nM | EC50 [3]: 1.9 nM | EC50 [4]: 110 nM | inhibition at 0.1 µM [5]: 100% | CC50 at 24 h [6]: > 200000 nM

CC(C)CN(C[C@@H](O)[C@H](Cc1ccccc1)NC(=O)OC[C@H]1CNCCO1)S(=O)(=O)c1ccc(O)cc1
selectivity ratio (HIV-1 protease): > 105000 | IC50 [7]: 1.9 nM | CC50 at 24 h [6]: > 200000 nM

CNc1ccc(S(=O)(=O)N(CC(C)C)C[C@@H](O)[C@H](Cc2ccccc2)NC(=O)[C@H]2CNCCO2)cc1
selectivity ratio (HIV-1 protease): > 2220 | IC50 [7]: 90.2 nM | CC50 at 24 h [6]: > 200000 nM

CC(C)CN(C[C@@H](O)[C@H](Cc1ccccc1)NC(=O)OC[C@H]1CN(C)CCO1)S(=O)(=O)c1ccc(NO)cc1
selectivity ratio (HIV-1 protease): > 14400 | IC50 [7]: 13.9 nM | CC50 at 24 h [6]: > 200000 nM

CC(C)CN(C[C@@H](O)[C@H](Cc1ccccc1)NC(=O)[C@@H]1COCCN1)S(=O)(=O)c1ccc(N)cc1
selectivity ratio (HIV-1 protease): > 6390 | IC50 [7]: 31.3 nM | CC50 at 24 h [6]: > 200000 nM

COc1ccc(S(=O)(=O)N(CC(C)C)C[C@@H](O)[C@H](Cc2ccccc2)NC(=O)[C@@H]2COCCN2)cc1
selectivity ratio (HIV-1 protease): > 513000 | Ratio EC50 [8]: 9 | EC50 [3]: 340 nM | EC50 [4]: 3190 nM | IC50 [7]: 0.39 nM | inhibition at 10 µM [9]: 100% | CC50 at 24 h [6]: > 200000 nM

CC(C)CN(C[C@@H](O)[C@H](Cc1ccccc1)NC(=O)[C@@H]1COCCN1)S(=O)(=O)c1ccc(O)cc1
selectivity ratio (HIV-1 protease): > 2.22e+06 | EC50 [1]: 8.23 nM | Ratio EC50 [8]: 14 | EC50 [2]: 13.6 nM | EC50 [3]: 89 nM | EC50 [4]: 1290 nM | IC50 [7]: 0.09 nM | inhibition at 10 µM [9]: 100% | CC50 at 24 h [6]: > 200000 nM

CC(C)CN(C[C@@H](O)[C@H](Cc1ccccc1)NC(=O)[C@@H]1COCCN1C)S(=O)(=O)c1ccc(O)cc1
selectivity ratio (HIV-1 protease): 113000 | Ratio EC50 [8]: 13 | EC50 [3]: 170 nM | EC50 [4]: 2200 nM | IC50 [7]: 1.2 nM | inhibition at 10 µM [9]: 100% | CC50 at 24 h [6]: 135000 nM

COc1ccc(S(=O)(=O)N(CC(C)C)C[C@@H](O)[C@H](Cc2ccccc2)NC(=O)OC[C@H]2CN(C)CCO2)cc1
selectivity ratio (HIV-1 protease): > 88900 | IC50 [7]: 2.25 nM | inhibition at 10 µM [9]: 100% | CC50 at 24 h [6]: > 200000 nM

CC(C)CN(C[C@@H](O)[C@H](Cc1ccccc1)NC(=O)OC[C@H]1CN(C)CCO1)S(=O)(=O)c1ccc(O)cc1
selectivity ratio (HIV-1 protease): > 130000 | IC50 [7]: 1.54 nM | CC50 at 24 h [6]: > 200000 nM

CC(C)CN(C[C@@H](O)[C@H](Cc1ccccc1)NC(=O)OC[C@H]1CNCCO1)S(=O)(=O)c1ccc(NO)cc1
selectivity ratio (HIV-1 protease): > 81600 | IC50 [7]: 2.45 nM | CC50 at 24 h [6]: > 200000 nM

CC(C)CN(C[C@@H](O)[C@H](Cc1ccccc1)NC(=O)[C@@H]1COCCN1)S(=O)(=O)c1ccc(NO)cc1
selectivity ratio (HIV-1 protease): 48400 | IC50 [7]: 2.99 nM | inhibition at 10 µM [9]: 93% | CC50 at 24 h [6]: 145000 nM

COc1ccc(S(=O)(=O)N(CC(C)C)C[C@@H](O)[C@H](Cc2ccccc2)NC(=O)OC[C@H]2CNCCO2)cc1
selectivity ratio (HIV-1 protease): > 299000 | IC50 [7]: 0.67 nM | inhibition at 10 µM [9]: 100% | CC50 at 24 h [6]: > 200000 nM

CC(C)CN(C[C@@H](O)[C@H](Cc1ccccc1)NS(=O)(=O)N1CCOCC1)S(=O)(=O)c1ccc(N)cc1
selectivity ratio (HIV-1 protease): 2860 | IC50 [7]: 35.2 nM | CC50 at 24 h [6]: 101000 nM

CC(C)CN(C[C@@H](O)[C@H](Cc1ccccc1)NC(=O)CN1CCS(=O)(=O)CC1)S(=O)(=O)c1ccc(NO)cc1
selectivity ratio (HIV-1 protease): > 4220 | IC50 [7]: 47.4 nM | CC50 at 24 h [6]: > 200000 nM

CC(C)CN(C[C@@H](O)[C@H](Cc1ccccc1)NC(=O)[C@H]1CNCCO1)S(=O)(=O)c1ccc(O)cc1
selectivity ratio (HIV-1 protease): > 35400 | IC50 [7]: 5.65 nM | CC50 at 24 h [6]: > 200000 nM

COc1ccc(S(=O)(=O)N(CC(C)C)C[C@@H](O)[C@H](Cc2ccccc2)NC(=O)[C@@H]2COCCN2C)cc1
selectivity ratio (HIV-1 protease): 27300 | Ratio EC50 [8]: 6 | EC50 [3]: 350 nM | EC50 [4]: 1990 nM | IC50 [7]: 4.83 nM | inhibition at 10 µM [9]: 100% | CC50 at 24 h [6]: 132000 nM

COc1ccc(S(=O)(=O)N(CC(C)C)C[C@@H](O)[C@H](Cc2ccccc2)NC(=O)CN2CCS(=O)(=O)CC2)cc1
selectivity ratio (HIV-1 protease): > 8230 | IC50 [7]: 24.3 nM | CC50 at 24 h [6]: > 200000 nM

COc1ccc(S(=O)(=O)N(CC(C)C)C[C@@H](O)[C@H](Cc2ccccc2)NC(=O)[C@H]2CNCCO2)cc1
selectivity ratio (HIV-1 protease): > 17200 | IC50 [7]: 11.7 nM | CC50 at 24 h [6]: > 200000 nM

CNc1ccc(S(=O)(=O)N(CC(C)C)C[C@@H](O)[C@H](Cc2ccccc2)NC(=O)[C@@H]2COCCN2)cc1
selectivity ratio (HIV-1 protease): > 2090 | IC50 [7]: 95.8 nM | CC50 at 24 h [6]: > 200000 nM

CC(C)CN(C[C@@H](O)[C@H](Cc1ccccc1)NC(=O)[C@H]1CNCCO1)S(=O)(=O)c1ccc(N)cc1
selectivity ratio (HIV-1 protease): > 3680 | IC50 [7]: 54.3 nM | CC50 at 24 h [6]: > 200000 nM

CC(C)CN(C[C@@H](O)[C@H](Cc1ccccc1)NC(=O)[C@@H]1COCCN1)S(=O)(=O)c1ccc(S(C)(=O)=O)cc1
selectivity ratio (HIV-1 protease): > 440 | IC50 [7]: 454 nM | CC50 at 24 h [6]: > 200000 nM

CC(C)CN(C[C@@H](O)[C@H](Cc1ccccc1)NC(=O)[C@@H]1COCCN1C)S(=O)(=O)c1ccc(NO)cc1
selectivity ratio (HIV-1 protease): 3550 | IC50 [7]: 26.7 nM | inhibition at 10 µM [9]: 78% | CC50 at 24 h [6]: 94600 nM

COc1ccc(S(=O)(=O)N(CC(C)C)C[C@@H](O)[C@H](Cc2ccccc2)NS(=O)(=O)N2CCOCC2)cc1
selectivity ratio (HIV-1 protease): 3140 | IC50 [7]: 19.2 nM | CC50 at 24 h [6]: 60300 nM

CC(C)CN(C[C@@H](O)[C@H](Cc1ccccc1)NC(=O)[C@H]1CNCCO1)S(=O)(=O)c1ccc(NO)cc1
selectivity ratio (HIV-1 protease): 328 | IC50 [7]: 34 nM | CC50 at 24 h [6]: 11200 nM

CC(C)CN(C[C@@H](O)[C@H](Cc1ccccc1)NC(=O)OC[C@H]1CNCCO1)S(=O)(=O)c1ccc(N)cc1
selectivity ratio (HIV-1 protease): > 10100 | IC50 [7]: 19.7 nM | CC50 at 24 h [6]: 200000 nM

CC(C)CN(C[C@@H](O)[C@H](Cc1ccccc1)NC(=O)CN1CCS(=O)(=O)CC1)S(=O)(=O)c1ccc(O)cc1
selectivity ratio (HIV-1 protease): > 18800 | IC50 [7]: 10.6 nM | CC50 at 24 h [6]: > 200000 nM
